One assay concerns the target GST-Bcl-XL (Homo sapiens, UniProt Q07817). Briefly: TR-FRET binding assay, GST-Bcl-XL with F-Bak peptide probe. The following applies: TR-FRET Binding Affinity, GST-Bcl-XL, F-Bak peptide probe. The procedure, abridged:
(§1)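 Competitive TR-FRET: GST-fusion protein, fluorescent Bak peptide probe and Tb-labelled anti-GST antibody incubated with compound dilution series (starting 50 μM as 2× stock, 10% DMSO) for 3 h at RT. Excitation 340/35 nm; Ki derived via Wang's exact competitive-binding equation.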
A general note: In TR-FRET formats the signal depends on donor and acceptor labels being close together.

The target in a further assay is GST-Bcl-2 (Homo sapiens, UniProt P10415). Briefly: TR-FRET binding assay, GST-Bcl-2 with F-Bak peptide probe. The following applies: TR-FRET Binding Affinity, GST-Bcl-2, F-Bak peptide probe. The procedure, abridged: as §1
In another assay the test system is FL5.12/Bcl-2 cells. Briefly: FL5.12/Bcl-2 cell viability assay under IL-3 withdrawal (CellTitre Glo). The following applies: Mus musculus, IL-3 withdrawn 48 hrs, then 24 hrs with compound. It is filed as cell-based, murine. The procedure, abridged:
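Viability measured by CellTitre Glo after FL5.12/Bcl-2 murine cells, starved of IL-3 for 48 hrs, were treated with compounds for another 24 hrs. Killing reflects inhibition of Bcl-2 sequestration of Bim and Puma.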

For orientation: Ki means a measure of affinity in units of concentration, obtained from inhibition or displacement. Lower therefore signals tighter binding. By EC50 is commonly meant the concentration needed to bring the measured effect to its halfway point.

Sequence of GST-Bcl-2 (P10415 whole entry): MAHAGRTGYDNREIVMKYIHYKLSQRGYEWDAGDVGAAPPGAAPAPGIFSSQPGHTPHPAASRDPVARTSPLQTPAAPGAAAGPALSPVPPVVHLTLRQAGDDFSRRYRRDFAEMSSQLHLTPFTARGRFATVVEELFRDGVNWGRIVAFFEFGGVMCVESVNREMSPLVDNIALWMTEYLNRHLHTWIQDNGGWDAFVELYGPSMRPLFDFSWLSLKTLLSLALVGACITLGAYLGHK
Sequence of GST-Bcl-XL (Q07817 whole entry, the tested form may be a part): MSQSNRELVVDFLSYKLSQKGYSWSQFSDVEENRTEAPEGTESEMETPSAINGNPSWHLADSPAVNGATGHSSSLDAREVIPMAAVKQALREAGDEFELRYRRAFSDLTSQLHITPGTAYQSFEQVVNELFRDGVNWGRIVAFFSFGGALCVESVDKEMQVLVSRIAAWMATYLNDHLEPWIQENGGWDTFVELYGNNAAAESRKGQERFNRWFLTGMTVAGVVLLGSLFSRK

For the compound `CN(C)CC#Cc1ccc(-c2ccc(Cl)cc2)c(CN2CCN(c3ccc(C(=O)NS(=O)(=O)c4ccc(NCC5CCOCC5)c([N+](=O)[O-])c4)c(Oc4cccc5[nH]ccc45)c3)CC2)c1` [Example 209, 4-[4-({4′-chloro-4-[3-(dimethylamino)prop-1-ynyl]-1,1′-biphenyl-2-yl}methyl)piperazin-1-yl]-2-(1H-indol-4-yloxy)-N-({3-nitro-4-[(tetrahydro-2H-pyran-4-ylmethyl)amino]phenyl}sulfonyl)benzamide], the results for the Ki at GST-Bcl-XL and at GST-Bcl-2 were more than 660 nM and 0.267 nM, respectively. The EC50 with FL5.12/Bcl-2 cells was 139 nM.

As to `CC1(C)CCC(CN2CCN(c3ccc(C(=O)NS(=O)(=O)c4ccc(NC5CCN(CCCC(F)(F)F)CC5)c([N+](=O)[O-])c4)c(Oc4cccc5[nH]ccc45)c3)CC2)=C(c2ccc(Cl)cc2)C1` [Example 210, 4-(4-{[2-(4-chlorophenyl)-4,4-dimethylcyclohex-1-en-1-yl]methyl}piperazin-1-yl)-2-(1H-indol-4-yloxy)-N-[(3-nitro-4-{[1-(4,4,4-trifluorobutyl)piperidin-4-yl]amino}phenyl)sulfonyl]benzamide], the values for the Ki on GST-Bcl-XL and at GST-Bcl-2 were more than 660 nM and 0.624 nM, respectively. Moreover, the EC50 in the assay on FL5.12/Bcl-2 cells came to 257 nM.

Regarding `CN1CCC(O)(CCNc2ccc(S(=O)(=O)NC(=O)c3ccc(N4CCN(CC5=C(c6ccc(Cl)cc6)CC(C)(C)CC5)CC4)cc3Oc3ccc4[nH]ccc4c3)cc2[N+](=O)[O-])CC1` [Example 211, 4-(4-{[2-(4-chlorophenyl)-4,4-dimethylcyclohex-1-en-1-yl]methyl}piperazin-1-yl)-N-[(4-{[2-(4-hydroxy-1-methylpiperidin-4-yl)ethyl]amino}-3-nitrophenyl)sulfonyl]-2-(1H-indol-5-yloxy)benzamide], the Ki at GST-Bcl-XL was 5.61 nM; on GST-Bcl-2, 0.009 nM. Further, the concentration for a half-maximal effect (EC50) in the assay on FL5.12/Bcl-2 cells was determined as 17.1 nM.

With `CC1(C)CCC(CN2CCN(c3ccc(C(=O)NS(=O)(=O)c4ccc(NC5CCN(c6nccs6)CC5)c([N+](=O)[O-])c4)c(Oc4ccc5[nH]ccc5c4)c3)CC2)=C(c2ccc(Cl)cc2)C1` [Example 212, 4-(4-{[2-(4-chlorophenyl)-4,4-dimethylcyclohex-1-en-1-yl]methyl}piperazin-1-yl)-2-(1H-indol-5-yloxy)-N-[(3-nitro-4-{[1-(1,3-thiazol-2-yl)piperidin-4-yl]amino}phenyl)sulfonyl]benzamide], the inhibitory constant (Ki) at GST-Bcl-XL is more than 660 nM; at GST-Bcl-2 it was 0.737 nM. For the same compound, the concentration giving a half-maximal response (EC50) in the assay on FL5.12/Bcl-2 cells is more than 500 nM.

In the case of `O=C(NS(=O)(=O)c1ccc(NCC2CCOCC2)c([N+](=O)[O-])c1)c1ccc(N2CCN(Cc3cc(OCCO)ccc3-c3ccc(Cl)cc3)CC2)cc1Oc1cccc2[nH]ccc12` [Example 213, 4-(4-{[4′-chloro-4-(2-hydroxyethoxy)-1,1′-biphenyl-2-yl]methyl}piperazin-1-yl)-2-(1H-indol-4-yloxy)-N-({3-nitro-4-[(tetrahydro-2H-pyran-4-ylmethyl)amino]phenyl}sulfonyl)benzamide], the inhibition constant (Ki) on GST-Bcl-XL was more than 660 nM; on GST-Bcl-2 it was less than 0.01 nM. In the assay with FL5.12/Bcl-2 cells, the EC50 is 432 nM.

`CC1(C)CCC(CN2CCN(c3ccc(C(=O)NS(=O)(=O)c4ccc(NC5CCN(CC6CC6)CC5)c([N+](=O)[O-])c4)c(Oc4ccc5[nH]ccc5c4)c3)CC2)=C(c2ccc(Cl)cc2)C1` [Example 214, 4-(4-{[2-(4-chlorophenyl)-4,4-dimethylcyclohex-1-en-1-yl]methyl}piperazin-1-yl)-N-[(4-{[1-(cyclopropylmethyl)piperidin-4-yl]amino}-3-nitrophenyl)sulfonyl]-2-(1H-indol-5-yloxy)benzamide]: the Ki stood at 64 nM on GST-Bcl-XL and 0.082 nM at GST-Bcl-2. In addition, the EC50 in the assay with FL5.12/Bcl-2 cells was determined as 15.7 nM.

Consider `CN1CCN(Nc2ccc(S(=O)(=O)NC(=O)c3ccc(N4CCN(CC5=C(c6ccc(Cl)cc6)CC(C)(C)CC5)CC4)cc3Oc3cccc4[nH]ccc34)cc2S(=O)(=O)C(F)(F)F)CC1` [Example 215, 4-(4-{[2-(4-chlorophenyl)-4,4-dimethylcyclohex-1-en-1-yl]methyl}piperazin-1-yl)-2-(1H-indol-4-yloxy)-N-({4-[(4-methylpiperazin-1-yl)amino]-3-[(trifluoromethyl)sulfonyl]phenyl}sulfonyl)benzamide], for which the Ki came out at 60.8 nM on GST-Bcl-XL and 0.503 nM at GST-Bcl-2. Moreover, in the assay with FL5.12/Bcl-2 cells, the concentration giving a half-maximal response (EC50) stood at 116 nM.

With `CC1(C)CCC(CN2CCN(c3ccc(C(=O)NS(=O)(=O)c4ccc(NC5CCN(CCCC(F)(F)F)CC5)c([N+](=O)[O-])c4)c(Oc4ccc5[nH]ccc5c4)c3)CC2)=C(c2ccc(Cl)cc2)C1` [Example 216, 4-(4-{[2-(4-chlorophenyl)-4,4-dimethylcyclohex-1-en-1-yl]methyl}piperazin-1-yl)-2-(1H-indol-5-yloxy)-N-[(3-nitro-4-{[1-(4,4,4-trifluorobutyl)piperidin-4-yl]amino}phenyl)sulfonyl]benzamide], the inhibitory constant (Ki) at GST-Bcl-XL was more than 660 nM; on GST-Bcl-2, 0.615 nM. The concentration for a half-maximal effect (EC50) in the assay with FL5.12/Bcl-2 cells was found to be 39.8 nM.

On to `CC(c1ccccc1-c1ccc(Cl)cc1)N1CCN(c2ccc(C(=O)NS(=O)(=O)c3ccc(NN4CCN(C)CC4)c([N+](=O)[O-])c3)c(Oc3cccc4[nH]ccc34)c2)CC1` (stereo not drawn) [Example 217, 4-{4-[1-(4′-chloro-1,1′-biphenyl-2-yl)ethyl]piperazin-1-yl}-2-(1H-indol-4-yloxy)-N-({4-[(4-methylpiperazin-1-yl)amino]-3-nitrophenyl}sulfonyl)benzamide], for which the Ki on GST-Bcl-XL turned out to be 44.8 nM; at GST-Bcl-2 it was 0.262 nM. The EC50 in the assay with FL5.12/Bcl-2 cells amounted to 20.8 nM.

Take `CN1CCC(Nc2ccc(S(=O)(=O)NC(=O)c3ccc(N4CCN(CC5=C(c6ccc(Cl)cc6)CC(C)(C)CC5)C(CO)C4)cc3Oc3ccc4[nH]ccc4c3)cc2[N+](=O)[O-])CC1` (stereo not drawn) [Example 218, 4-[4-{[2-(4-chlorophenyl)-4,4-dimethylcyclohex-1-en-1-yl]methyl}-3-(hydroxymethyl)piperazin-1-yl]-2-(1H-indol-5-yloxy)-N-({4-[(1-methylpiperidin-4-yl)amino]-3-nitrophenyl}sulfonyl)benzamide]: the figures for the Ki at GST-Bcl-XL and on GST-Bcl-2 were 96.9 nM and 0.131 nM, respectively. The half-maximal effective concentration (EC50) in the assay on FL5.12/Bcl-2 cells turned out to be 33 nM.

Turning to `CC1(C)CCC(CN2CCN(c3ccc(C(=O)NS(=O)(=O)c4ccc(NC5CCN(C6CCOCC6)CC5)c([N+](=O)[O-])c4)c(Oc4ccc5[nH]ccc5c4)c3)CC2CO)=C(c2ccc(Cl)cc2)C1` (stereo not drawn) [Example 219, 4-[4-{[2-(4-chlorophenyl)-4,4-dimethylcyclohex-1-en-1-yl]methyl}-3-(hydroxymethyl)piperazin-1-yl]-2-(1H-indol-5-yloxy)-N-({3-nitro-4-[(1-tetrahydro-2H-pyran-4-ylpiperidin-4-yl)amino]phenyl}sulfonyl)benzamide], the Ki at GST-Bcl-XL turned out to be 29.9 nM; at GST-Bcl-2, 0.236 nM. Further, the EC50 with FL5.12/Bcl-2 cells is 23 nM.

On to `CN1CCN(Nc2ccc(S(=O)(=O)NC(=O)c3ccc(N4CCN(CC5=C(c6ccc(Cl)cc6)CC(C)(C)CC5)CC4)cc3Oc3ccc4[nH]ccc4c3)cc2S(=O)(=O)C(F)(F)F)CC1` [Example 220, 4-(4-{[2-(4-chlorophenyl)-4,4-dimethylcyclohex-1-en-1-yl]methyl}piperazin-1-yl)-2-(1H-indol-5-yloxy)-N-({4-[(4-methylpiperazin-1-yl)amino]-3-[(trifluoromethyl)sulfonyl]phenyl}sulfonyl)benzamide], for which the values for the Ki on GST-Bcl-XL and on GST-Bcl-2 were 31.4 nM and 0.192 nM, respectively. For the same compound, the EC50 with FL5.12/Bcl-2 cells was found to be 24 nM.

The values are drawn from patent publication US9073855B2, “BCL-2 selective apoptosis-inducing agents for the treatment of cancer and immune diseases” (AbbVie Inc., priority 2008, dated 2015).
